The supplement of paper PMC11451515

Assays:
Details in all cases: 48 h
P12-Ichikawa [1] = assay: AUC of viability dose-response curve (% viability x log10 dose units); higher = less sensitive
In short: (§1)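 Leukemia cells adapted to each medium were seeded at 500 or 1000 cells/well in 1536-well plates and dosed with library compounds in DMSO at 11 threefold doses from 47 μM to 0.79 nM for 48 h at 37°C. CellTiter-Glo One luminescence was normalised per plate to DMSO and cell-free wells, then fitted with a four-parameter log-logistic model over log10 doses. Area under the curve was taken from this fit by the trapezoidal rule, with curves above full viability scaled and curves failing quality control removed.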

SEM cells [2] = assay: as above
In short: as §1

NOMO1 [3] = assay: as above
In short: as §1

P12-Ichikawa [4] = assay: cell viability relative to DMSO control; higher = less cytotoxic
In short: (§2)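 Leukemia cells (NOMO1 or SEM, 500 cells/well; P12-Ichikawa, 1000 cells/well) were seeded in 5 μl in 1536-well plates after at least four passages of adaptation to each medium. They received library compounds in DMSO by pin dosing, 11 threefold points from 47 μM to 0.79 nM. Luminescence with CellTiter-Glo One was read after 48 h at 37°C. Viability is stated per plate relative to DMSO wells, with cell-free wells as background.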

SEM cells [5] = assay: as above
In short: as §2

NOMO1 [6] = assay: as above
In short: as §2

CCN(c1ccccc1)c1cc(NC)[n+](C)c(C)n1
AUC of viability dose-response curve
Details | NOMO1 [3] | P12-Ichikawa [1] | SEM cells [2]
HPLM + 10% dialyzed FBS | 456 | 469 | 464
RPMI 5 mM glucose + 10% FBS | 471 | 457 | 466
RPMI 5 mM glucose + 10% dialyzed FBS | 468 | 470 | 475

cell viability [%]
Details | NOMO1 [6] | P12-Ichikawa [4] | SEM cells [5]
HPLM + 10% dialyzed FBS, 0.000781 µM | 121 | 108 | 110
HPLM + 10% dialyzed FBS, 0.00234 µM | 123 | 111 | 107
HPLM + 10% dialyzed FBS, 0.00702 µM | 109 | 108 | 108
HPLM + 10% dialyzed FBS, 0.0211 µM | 120 | 106 | 101
HPLM + 10% dialyzed FBS, 0.0632 µM | 130 | 111 | 107
HPLM + 10% dialyzed FBS, 0.19 µM | 115 | 114 | 114
HPLM + 10% dialyzed FBS, 0.569 µM | 116 | 107 | 99.5
HPLM + 10% dialyzed FBS, 1.71 µM | 123 | 107 | 116
HPLM + 10% dialyzed FBS, 5.12 µM | 107 | 119 | 104
HPLM + 10% dialyzed FBS, 15.4 µM | 109 | 102 | 102
HPLM + 10% dialyzed FBS, 46.1 µM | 111 | 101 | 97.9
RPMI 5 mM glucose + 10% FBS, 0.000781 µM | 115 | 112 | 111
RPMI 5 mM glucose + 10% FBS, 0.00234 µM | 104 | 114 | 97.2
RPMI 5 mM glucose + 10% FBS, 0.00702 µM | 106 | 120 | 96.4
RPMI 5 mM glucose + 10% FBS, 0.0211 µM | 110 | 114 | 105
RPMI 5 mM glucose + 10% FBS, 0.0632 µM | 101 | 118 | 99.5
RPMI 5 mM glucose + 10% FBS, 0.19 µM | 104 | 106 | 101
RPMI 5 mM glucose + 10% FBS, 0.569 µM | 123 | 114 | 87.7
RPMI 5 mM glucose + 10% FBS, 1.71 µM | 122 | 105 | 100
RPMI 5 mM glucose + 10% FBS, 5.12 µM | 112 | 108 | 105
RPMI 5 mM glucose + 10% FBS, 15.4 µM | 95.5 | 109 | 95.3
RPMI 5 mM glucose + 10% FBS, 46.1 µM | 103 | 98.9 | 101
RPMI 5 mM glucose + 10% dialyzed FBS, 0.000781 µM | 106 | 114 | 101
RPMI 5 mM glucose + 10% dialyzed FBS, 0.00234 µM | 111 | 109 | 105
RPMI 5 mM glucose + 10% dialyzed FBS, 0.00702 µM | 112 | 112 | 97.4
RPMI 5 mM glucose + 10% dialyzed FBS, 0.0211 µM | 124 | 116 | 108
RPMI 5 mM glucose + 10% dialyzed FBS, 0.0632 µM | 122 | 111 | 99.9
RPMI 5 mM glucose + 10% dialyzed FBS, 0.19 µM | 116 | 118 | 97.4
RPMI 5 mM glucose + 10% dialyzed FBS, 0.569 µM | 126 | 117 | 105
RPMI 5 mM glucose + 10% dialyzed FBS, 1.71 µM | 113 | 117 | 99.1
RPMI 5 mM glucose + 10% dialyzed FBS, 5.12 µM | 103 | 111 | 107
RPMI 5 mM glucose + 10% dialyzed FBS, 15.4 µM | 108 | 104 | 106
RPMI 5 mM glucose + 10% dialyzed FBS, 46.1 µM | 108 | 106 | 100

CCN1CCCC1CNC(=O)c1cc([S+](N)(=O)[O-])ccc1OC (stereo unspecified)
AUC of viability dose-response curve
Details | NOMO1 [3] | P12-Ichikawa [1] | SEM cells [2]
HPLM + 10% dialyzed FBS | 467 | 476 | 453
RPMI 5 mM glucose + 10% FBS | 470 | 467 | 460
RPMI 5 mM glucose + 10% dialyzed FBS | 455 | 469 | 470

cell viability [%]
Details | NOMO1 [6] | P12-Ichikawa [4] | SEM cells [5]
HPLM + 10% dialyzed FBS, 0.000781 µM | 104 | 111 | 90
HPLM + 10% dialyzed FBS, 0.00234 µM | 117 | 115 | 88.7
HPLM + 10% dialyzed FBS, 0.00702 µM | 127 | 119 | 97.6
HPLM + 10% dialyzed FBS, 0.0211 µM | 127 | 108 | 87.3
HPLM + 10% dialyzed FBS, 0.0632 µM | 142 | 125 | 102
HPLM + 10% dialyzed FBS, 0.19 µM | 128 | 121 | 90.1
HPLM + 10% dialyzed FBS, 0.569 µM | 111 | 116 | 102
HPLM + 10% dialyzed FBS, 1.71 µM | 117 | 118 | 107
HPLM + 10% dialyzed FBS, 5.12 µM | 140 | 113 | 108
HPLM + 10% dialyzed FBS, 15.4 µM | 121 | 120 | 69.1
HPLM + 10% dialyzed FBS, 46.1 µM | 78 | 109 | 102
RPMI 5 mM glucose + 10% FBS, 0.000781 µM | 120 | – | 96.8
RPMI 5 mM glucose + 10% FBS, 0.00234 µM | 113 | – | 102
RPMI 5 mM glucose + 10% FBS, 0.00702 µM | 102 | – | 112
RPMI 5 mM glucose + 10% FBS, 0.0211 µM | 103 | – | 92.4
RPMI 5 mM glucose + 10% FBS, 0.0632 µM | 123 | – | 105
RPMI 5 mM glucose + 10% FBS, 0.19 µM | 106 | – | 111
RPMI 5 mM glucose + 10% FBS, 0.569 µM | 118 | – | 106
RPMI 5 mM glucose + 10% FBS, 1.71 µM | 120 | – | 112
RPMI 5 mM glucose + 10% FBS, 5.12 µM | 119 | – | 102
RPMI 5 mM glucose + 10% FBS, 15.4 µM | 117 | – | 66
RPMI 5 mM glucose + 10% FBS, 46.1 µM | 105 | – | 97.8
RPMI 5 mM glucose + 10% dialyzed FBS, 0.000781 µM | 111 | 107 | 102
RPMI 5 mM glucose + 10% dialyzed FBS, 0.00234 µM | 126 | 117 | 91.6
RPMI 5 mM glucose + 10% dialyzed FBS, 0.00702 µM | 106 | 121 | 110
RPMI 5 mM glucose + 10% dialyzed FBS, 0.0211 µM | 125 | 117 | 113
RPMI 5 mM glucose + 10% dialyzed FBS, 0.0632 µM | 115 | 126 | 118
RPMI 5 mM glucose + 10% dialyzed FBS, 0.19 µM | 139 | 117 | 122
RPMI 5 mM glucose + 10% dialyzed FBS, 0.569 µM | 131 | 124 | 107
RPMI 5 mM glucose + 10% dialyzed FBS, 1.71 µM | 134 | 126 | 123
RPMI 5 mM glucose + 10% dialyzed FBS, 5.12 µM | 122 | 124 | 133
RPMI 5 mM glucose + 10% dialyzed FBS, 15.4 µM | 126 | 128 | 59.1
RPMI 5 mM glucose + 10% dialyzed FBS, 46.1 µM | 129 | 117 | 121

NC(=O)c1ncn([C@@H]2O[C@H](CO)[C@@H](O)[C@H]2O)c1O
AUC of viability dose-response curve
Details | NOMO1 [3] | P12-Ichikawa [1] | SEM cells [2]
HPLM + 10% dialyzed FBS | 465 | 464 | 473
RPMI 5 mM glucose + 10% FBS | 468 | 463 | 474
RPMI 5 mM glucose + 10% dialyzed FBS | 460 | 464 | 457

cell viability [%]
Details | NOMO1 [6] | P12-Ichikawa [4] | SEM cells [5]
HPLM + 10% dialyzed FBS, 0.000781 µM | – | – | 128
HPLM + 10% dialyzed FBS, 0.00234 µM | – | – | 118
HPLM + 10% dialyzed FBS, 0.00702 µM | – | – | 82.8
HPLM + 10% dialyzed FBS, 0.0211 µM | – | – | 120
HPLM + 10% dialyzed FBS, 0.0632 µM | – | – | 117
HPLM + 10% dialyzed FBS, 0.19 µM | – | – | 117
HPLM + 10% dialyzed FBS, 0.569 µM | – | – | 115
HPLM + 10% dialyzed FBS, 1.71 µM | – | – | 130
HPLM + 10% dialyzed FBS, 5.12 µM | – | – | 118
HPLM + 10% dialyzed FBS, 15.4 µM | – | – | 123
HPLM + 10% dialyzed FBS, 46.1 µM | – | – | 104
RPMI 5 mM glucose + 10% FBS, 0.000781 µM | 122 | 129 | 112
RPMI 5 mM glucose + 10% FBS, 0.00234 µM | 125 | 123 | 127
RPMI 5 mM glucose + 10% FBS, 0.00702 µM | 114 | 119 | 89.1
RPMI 5 mM glucose + 10% FBS, 0.0211 µM | 118 | 130 | 137
RPMI 5 mM glucose + 10% FBS, 0.0632 µM | 114 | 124 | 131
RPMI 5 mM glucose + 10% FBS, 0.19 µM | 136 | 126 | 131
RPMI 5 mM glucose + 10% FBS, 0.569 µM | 129 | 133 | 115
RPMI 5 mM glucose + 10% FBS, 1.71 µM | 127 | 123 | 118
RPMI 5 mM glucose + 10% FBS, 5.12 µM | 112 | 111 | 121
RPMI 5 mM glucose + 10% FBS, 15.4 µM | 112 | 117 | 117
RPMI 5 mM glucose + 10% FBS, 46.1 µM | 117 | 108 | 114
RPMI 5 mM glucose + 10% dialyzed FBS, 0.000781 µM | 122 | 118 | 98.7
RPMI 5 mM glucose + 10% dialyzed FBS, 0.00234 µM | 127 | 126 | 104
RPMI 5 mM glucose + 10% dialyzed FBS, 0.00702 µM | 115 | 113 | 85.8
RPMI 5 mM glucose + 10% dialyzed FBS, 0.0211 µM | 113 | 123 | 128
RPMI 5 mM glucose + 10% dialyzed FBS, 0.0632 µM | 106 | 122 | 121
RPMI 5 mM glucose + 10% dialyzed FBS, 0.19 µM | 120 | 121 | 104
RPMI 5 mM glucose + 10% dialyzed FBS, 0.569 µM | 118 | 123 | 112
RPMI 5 mM glucose + 10% dialyzed FBS, 1.71 µM | 103 | 122 | 115
RPMI 5 mM glucose + 10% dialyzed FBS, 5.12 µM | 115 | 109 | 113
RPMI 5 mM glucose + 10% dialyzed FBS, 15.4 µM | 118 | 110 | 116
RPMI 5 mM glucose + 10% dialyzed FBS, 46.1 µM | 112 | 104 | 113
